Columns and labels:
plasma cortisol = assay: Phase I rising single-dose safety and tolerance study, metered dose inhaler, 24-hour plasma cortisol; assay type: in vivo, healthy male volunteers
Procedure: Several Phase I studies were conducted using mometasone furoate formulated for delivery as a suspension in a pressurized metered dose inhaler (MDI). In a randomized, third-party blinded, placebo-controlled rising single-dose safety and tolerance study, aerosolized mometasone furoate was administered by a metered dose inhaler to eight healthy male volunteers. Doses were administered at 11 p.m. and plasma cortisol concentrations were measured during the following 24-hour period.

[1] = test system: patients with asthma requiring treatment with inhaled corticosteroids; assay: Randomized double-blinded multicenter Phase II study, MDI BID for 4 weeks; assay type: in vivo
Procedure: In a recently completed, randomized, double-blinded multicenter, Phase II study, 395 patients with asthma requiring treatment with inhaled corticosteroids were randomized to one of the five treatment groups: mometasone furoate (MDI 112 mcg/day, 400 mcg/day or 1000 mcg/day, beclomethasone dipropionate (BDP) 336 mcg/day, or placebo. All treatment regimens consisted of BID dosing for 4 weeks. PROVENTIL inhalation aerosol (albuterol, USP) was supplied as rescue medication.
Efficacy was evaluated by spirometry and by physician and patient evaluation of asthma signs and symptoms. The forced expiratory volume in one second (FEV1), forced vital capacity (FVC), and forced expiratory flow between 25% to 75% (FEF25%−75%) were measured at each visit by the investigator. The peak expiratory flow rate (PEFR) was measured twice daily (AM and PM) by the patient. FEV1 at endpoint of treatment (last evaluable visit) was the primary measure of efficacy. The investigator (at all visits) and the patient (twice daily) rated wheezing, tightness in chest, shortness of breath, and cough on a scale from 0 (None) to 6 (Incapacitating). In addition, the investigator rated the overall condition of asthma on the same scale at each visit, and the patient kept a diary of the total number of asthma attacks each day, the number of night awakenings due to asthma, and the total number of puffs of Proventil (protocol-permitted rescue medication) used. The actual value and changes from Baseline were analyzed for each visit.

[2] = test system: patients with seasonal allergic rhinitis; assay: Dose ranging safety and efficacy study, aqueous nasal spray, 4 weeks; assay type: in vivo; settings: nasal spray 50, 100, 200, 800 mcg/day
Excerpt: In treating allergic and non-allergic rhinitis, the aqueous suspension of mometasone furoate may be administered intranasally by inserting an appropriate device (such as the pump spray bottle used to deliver Vancenase AQ® Nasal Spray as well as the spray bottle disclosed in the Schering Corporation Industrial Design Deposit DM/026304 registered Jun. 1, 1993) into each nostril. Active drug is then expelled (nasal spray device) or could be nasally inhaled (sniffed) as a powder. Efficacy is generally assessed in a double blind fashion by a reduction in nasal symptoms (e.g., sneezing, itching, congestion, and discharge). Other objective measurements (e.g., nasal peak flow and resistance) can be used as supportive indices of efficacy.
In a dose ranging safety and efficacy study, the mometasone furoate aqueous nasal spray formulation at doses of 50 mcg/day, 100 mcg/day, 200 mcg/day, 800 mcg/day or placebo was administered to 480 patients with seasonal allergic rhinitis for 4 weeks.

[3] = test system: symptomatic patients with seasonal allergic rhinitis; assay: Onset of clinical efficacy study, nasal spray, 14 days, total nasal symptom score; assay type: in vivo
Procedure: The study lasted 14 days in length. Data from 201 patients were used for analysis. a. Signs and symptoms were individually scored by the patient on the diary card, and by the investigator or designee at Screening and Baseline (Day 1), Day 4, Day 8, and Day 15 after treatment. All symptoms (nasal and non-nasal) were rated by the investigator or designee according to the following scale: The overall condition of rhinitis was evaluated by the investigator or designee and patient at the same time as symptoms, and scored according to the following criteria: 3. Drug—Each patient was given a metered nasal pump spray bottle containing either an aqueous suspension of mometasone furoate or placebo. […] After the Baseline visit, each patient was instructed to enter into his/her diary the information about the time of onset of nasal relief and level of nasal symptom relief as no relief, slight, moderate, marked, or complete. At Baseline and each follow-up visit, the physician evaluated the following signs and symptoms of allergic rhinitis, scored as 0=none, 1=mild, 2=moderate, 3=severe. • a. NASAL SYMPTOMS • nasal discharge • congestion/stuffiness • sneezing • itching • b. […] At each follow-up visit post Baseline, the physician and patient evaluated the therapeutic response as 5=no relief, 4=slight relief, 3=moderate relief, 2=marked relief, 1=complete relief. After the Baseline visit, each morning and evening the patient completed a diary to assess the 8 signs and symptoms of allergic rhinitis as described above. The primary efficacy results are based on a survival analysis of the onset times of relief (defined as the first time patient experienced at least moderate relief of nasal symptoms) for the mometasone furoate nasal spray and placebo groups. In this analysis, patients reporting slight or no relief for the first 3 days after treatment were censored at Day 3. Also, results from the patient regular diary (by 15-day average) data were evaluated. Data from 201 patients were used in the survival analysis.

[4] = Aqueous suspension once-a-day in allergic rhinitis (summary statement); assay type: in vivo
Excerpt: In treating allergic and non-allergic rhinitis, the aqueous suspension of mometasone furoate may be administered intranasally by inserting an appropriate device (such as the pump spray bottle used to deliver […]® Nasal Spray as well as the spray bottle disclosed in the Schering Corporation Industrial Design Deposit DM/026304 registered Jun. 1, 1993) into each nostril. Active drug is then expelled (nasal spray device) or could be nasally inhaled (sniffed) as a powder. Efficacy is generally assessed in a double blind fashion by a reduction in nasal symptoms (e.g., sneezing, itching, congestion, and discharge). Other objective measurements (e.g., nasal peak flow and resistance) can be used as supportive indices of efficacy. For treatment of allergic and/or inflammatory diseases of the lower airways and lung parenchyma especially diseases such as asthma, chronic obstructive pulmonary disease (“COPD”), granulomatus diseases of the lungs and lower airway passage, non-malignant proliferative disease of the lungs e.g., idiopathic pulmonary fibrosis, hypersensitivity pneumonitis and bronchopulmonary dysplasia the following dosage ranges of mometasone furoate may be used: […] Typically 2-4 mL of the aqueous suspension of mometasone furoate monohydrate may be placed in a plastic nebulizer container and the patient would inhale for 2-10 minutes.

C[C@@H]1C[C@H]2[C@@H]3CCC4=CC(=O)C=C[C@]4(C)[C@@]3(Cl)[C@@H](O)C[C@]2(C)[C@@]1(OC(=O)c1ccco1)C(=O)CCl [mometasone furoate]
reduction of 24-hour area under the curve plasma cortisol profile (AUC 0-24) compared to placebo (plasma cortisol; single dose 1000 mcg by MDI at 11 p.m.): 13%
reduction of 24-hour area under the curve plasma cortisol profile (AUC 0-24) compared to placebo (plasma cortisol; single dose 2000 mcg by MDI at 11 p.m.): 23%
reduction of 24-hour area under the curve plasma cortisol profile (AUC 0-24) compared to placebo (plasma cortisol; single dose 4000 mcg by MDI at 11 p.m.): 36%
total asthma scores, assessment of overall condition, therapeutic response ([1]; all doses): superiority of all mometasone furoate doses relative to placebo
improvement of a.m. PEFR versus BDP ([1]; all doses, final week of treatment): significantly better than 336 mg dose of BDP
FEV1 versus BDP 336 mcg/day ([1]; two higher doses (400, 1000 mcg/day), Days 14, 21 and 28): superior to beclomethasone dipropionate
FEV1 versus low dose (112 mcg/day) ([1]; two higher doses, Day 21 and Day 28): significantly superior to the low mometasone furoate dose
efficacy relative to placebo [2]: effective relative to placebo
tolerability [2]: well tolerated
reduction in total nasal symptom score from baseline ([3]; morning & evening averaged diary, 15-days average): statistically significantly higher than that for the placebo group
median onset time to relief (at least moderate relief of nasal symptoms) ([3]; nasal spray 200 mcg once-a-day, survival analysis, placebo 72 hours, log-rank p<0.001): 35.9 h
patients who recorded slight or no relief (censored) at Day 3 ([3]; of 101 patients, placebo 50 of 100): 24 patients
safety and efficacy in allergic rhinitis ([4]; 25 up to 1600 micrograms once-a-day): safe and effective
dose dependence of treatment effect ([4]; once-a-day): no improvement in treatment is typically found above 400 micrograms a day

From patent US6956030B2, “Use of mometasone furoate for treating upper airway diseases” (Schering Corporation, priority 1994, dated 2005)
